The text below walks through data of publication PMC2244712, “One-Pot, Mix-and-Read Peptide-MHC Tetramers” (PLoS ONE, 2008).

Residues, ends and D or L forms follow the SMILES beside them. Bounds are passed on as bounds.

In test [1] the target is in vivo biotinylated HLA-B*0702-BSPHAT heavy chain folded with ß2m (human). Description: ELISA. In general terms: In an ELISA, binding on a coated surface is turned into a signal by an enzyme label.
The next test has as its target T1, HLA-A*0201 (Homo sapiens, UniProt P04439, D140Y/D185E/D98H/E176V/E277Q/G131W/G231S/I119V/I121R/I166T/I218V/L300P/L318F/N151K/N90K/P208A/P217A/Q86G/Q94H/R138H/R169H/T345S).
T1 construct: generated from synthetic codon optimized and truncated genes without the transmembrane region; BSP (BirA biotinylation substrate peptide, biotinylated in vivo or not) (C); made in house; host or cells: E. coli BL21 (DE3), pET28a+, co-transformed with a BirA vector
Briefly: biochemical. The format is binding.

Test [2] addresses in vivo biotinylated HLA-A*0201-HAT-BSP heavy chain folded with ß2m (human). Description: ELISA.
Test [3] addresses in vivo biotinylated HLA-B*4402-HATBSP heavy chain folded with ß2m (human). Briefly: ELISA.

Sequence of EBV EBNA3b 657-666 peptide (P03203 whole entry, looked up): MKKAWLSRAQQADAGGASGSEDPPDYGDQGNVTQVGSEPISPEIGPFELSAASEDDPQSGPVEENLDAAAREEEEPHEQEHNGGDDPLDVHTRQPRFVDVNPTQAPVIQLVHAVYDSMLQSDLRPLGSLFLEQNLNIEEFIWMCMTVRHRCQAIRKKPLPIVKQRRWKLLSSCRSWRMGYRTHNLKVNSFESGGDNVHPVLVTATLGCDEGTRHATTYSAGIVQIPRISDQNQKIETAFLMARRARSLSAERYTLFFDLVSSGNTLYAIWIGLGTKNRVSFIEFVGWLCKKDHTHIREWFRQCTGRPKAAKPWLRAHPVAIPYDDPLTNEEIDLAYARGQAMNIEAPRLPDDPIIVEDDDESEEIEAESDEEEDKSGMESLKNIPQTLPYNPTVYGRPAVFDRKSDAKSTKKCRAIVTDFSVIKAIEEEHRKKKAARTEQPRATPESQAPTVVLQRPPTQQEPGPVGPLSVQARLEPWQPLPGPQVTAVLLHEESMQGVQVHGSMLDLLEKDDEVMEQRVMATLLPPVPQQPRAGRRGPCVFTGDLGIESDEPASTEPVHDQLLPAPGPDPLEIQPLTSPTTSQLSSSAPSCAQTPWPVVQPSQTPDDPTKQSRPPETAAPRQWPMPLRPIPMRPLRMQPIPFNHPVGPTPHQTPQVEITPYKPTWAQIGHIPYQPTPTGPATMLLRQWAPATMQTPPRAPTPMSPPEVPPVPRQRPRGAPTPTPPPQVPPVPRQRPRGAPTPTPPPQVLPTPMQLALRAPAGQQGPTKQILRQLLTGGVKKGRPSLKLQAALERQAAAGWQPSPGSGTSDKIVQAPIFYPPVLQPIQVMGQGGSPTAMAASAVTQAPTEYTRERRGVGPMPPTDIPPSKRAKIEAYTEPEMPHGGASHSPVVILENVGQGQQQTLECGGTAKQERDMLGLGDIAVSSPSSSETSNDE
Sequence of CMV pp65 417-426 peptide (P06725 whole entry, looked up): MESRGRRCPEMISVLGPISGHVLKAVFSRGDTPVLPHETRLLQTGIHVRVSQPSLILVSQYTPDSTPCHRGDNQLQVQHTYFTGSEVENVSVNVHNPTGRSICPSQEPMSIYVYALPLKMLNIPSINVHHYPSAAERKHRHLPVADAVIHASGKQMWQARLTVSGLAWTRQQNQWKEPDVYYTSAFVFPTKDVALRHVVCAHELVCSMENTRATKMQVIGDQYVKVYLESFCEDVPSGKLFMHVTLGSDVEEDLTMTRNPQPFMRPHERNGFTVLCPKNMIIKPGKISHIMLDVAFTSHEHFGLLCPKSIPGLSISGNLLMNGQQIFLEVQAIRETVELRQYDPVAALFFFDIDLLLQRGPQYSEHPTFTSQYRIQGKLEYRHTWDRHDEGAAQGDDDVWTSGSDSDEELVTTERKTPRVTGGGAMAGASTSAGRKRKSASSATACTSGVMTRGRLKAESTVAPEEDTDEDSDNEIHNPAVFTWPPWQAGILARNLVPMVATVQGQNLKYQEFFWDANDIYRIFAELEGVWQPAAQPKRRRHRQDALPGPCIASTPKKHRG
Sequence of CMV pp65 495-503 peptide (P06725 whole entry, looked up): as above

Regarding “CMV pp65 417-426 peptide (from UniProt P06725 417-426)”, the % folding in test [1] turned out to be 100%. With `CC[C@H](C)[C@H](NC(=O)[C@H](CCCCN)NC(=O)[C@H](CCCCN)NC(=O)[C@H](CS)NC(=O)[C@H](C)NC(=O)[C@H](CC(=O)O)NC(=O)[C@H](CO)NC(=O)[C@H](CC(C)C)NC(=O)[C@H](C)N)C(=O)O` (H-ALSDACKKI-OH), at HLA-A*0201, the Kd (as a rule, a measure of binding affinity in units of concentration) was over 1000 nM. The compound `CC(C)C[C@H](NC(=O)[C@@H](N)Cc1ccc(O)cc1)C(=O)N[C@@H](CO)C(=O)N[C@H](C(=O)N[C@@H](CCC(=O)O)C(=O)N[C@@H](CCCNC(=N)N)C(=O)N[C@@H](CC(=O)O)C(=O)N[C@@H](Cc1c[nH]cn1)C(=O)N[C@H](C(=O)O)C(C)C)[C@@H](C)O` (H-YLSTERDHV-OH) showed a Kd at HLA-A*0201 of 10 to 100 nM. `CC[C@H](C)[C@H](NC(=O)[C@H](CC(N)=O)NC(=O)[C@@H](NC(=O)[C@H](C)NC(=O)[C@H](CO)NC(=O)[C@H](CC(=O)O)NC(=O)[C@H](CO)NC(=O)[C@H](CC(C)C)NC(=O)[C@@H](N)Cc1ccc(O)cc1)[C@@H](C)CC)C(=O)O` (H-YLSDSAINI-OH) came in with a Kd at HLA-A*0201 of under 10 nM. Still for that read-out and setting: the figure for `CC[C@H](C)[C@H](NC(=O)[C@@H](NC(=O)[C@H](CC(=O)O)NC(=O)[C@H](Cc1ccc(O)cc1)NC(=O)[C@H](CC(=O)O)NC(=O)[C@H](CC(C)C)NC(=O)[C@@H](N)Cc1ccc(O)cc1)[C@@H](C)O)C(=O)N[C@@H](Cc1ccc(O)cc1)C(=O)N[C@H](C(=O)O)C(C)C` (H-YLDYDTIYV-OH) is under 10 nM. Compound “CMV pp65 495-503 peptide (from UniProt P06725 495-503)” returned a % folding in test [2] of 95%.

At HLA-A*0201, `CC(C)C[C@H](NC(=O)[C@@H](N)Cc1ccccc1)C(=O)N[C@@H](CCC(=O)O)C(=O)N[C@H](C(=O)N[C@@H](CC(=O)O)C(=O)N[C@@H](C)C(=O)NCC(=O)N[C@@H](CCCNC(=N)N)C(=O)N[C@H](C(=O)O)C(C)C)[C@@H](C)O` (H-FLETDAGRV-OH) had a Kd of 10 to 100 nM. In test [3], “EBV EBNA3b 657-666 peptide (from UniProt P03203 657-666)” displayed a % folding of 100%.
